Laboratory results reported in publication PMC10587159, “Biosynthesis and engineering of the nonribosomal peptides with a C-terminal putrescine” (Nature Communications, 2023).
One block for each compound: values may come before it. Non-standard residues stand in square brackets, D forms with d. Residues, ends and D or L forms follow the SMILES beside them. *: point of attachment. Lauroyl = CCCCCCCCCCCC(=O)*; Decanoyl = CCCCCCCCCC(=O)*; NH(CH2)4NH2 = NCCCCN*; For = O=C*

Assays:
[1] = system: A1 domain of CsA1T1 (GdnA); experiment: Adenylation activity of A1 domain (ATP/PPi exchange, pyrophosphate production assay); format: biochemical, Schlegelella brevitalea DSM 7029; conditions: for relative activity of A1 domain for the activation of amino acids, Average: CsA1T1 1 μM, 10 mM amino acid, 2.5 mM ATP, pH 7.6, A360, L-Met = 100%, mean of n = 3; for selectivity of A1 domain for amino acids in words: response to reviewers on Supplementary Fig. 6a
Experimental: For pyrophosphate production assays, the reaction system contains 10 mM amino acid substrates, 2.5 mM ATP (Solarbio), 0.2 mM MESG (Medchemexpress), 1 U/mL purine nucleoside phosphorylase (Shanghai yuanye Bio-Technology Co., Ltd), 0.4 U/mL inorganic pyrophosphatase (Sigma), 150 mM hydroxylamine (Sigma) and 1 μM proteins in 100 μL buffer (50 mM Tris, 300 mM NaCl and 5 mM MgCl2, pH 7.6). The value was read at A360 in a SpectraMax M5 plate reader (Molecular Devices, Sunnyvale, California) in 96 well, clear-bottomed plates (Corning). A360 values were converted to pyrophosphate release, by comparing with a standard curve (KH2PO4 from 2 μM to 128 μM) for known quantities of pyrophosphate.

[2] = system: human lung adenocarcinoma cell A549; experiment: MTT cytotoxicity assay, A549; format: cell-based; conditions: 24 h
From the text: (§1) The two human acute lymphoblastic leukemia cells K562 and Kasumi, two human breast adenocarcinoma cells MCF7 and MDA-MB-231, human hepatoma cell HepG-2, human lung adenocarcinoma cell A549, human gastric cancer cell SGC-7901, human colon cancer cell HCT-116, human ovarian cancer cell line SKOV3, or human lung epithelial normal cell 2B were obtained from Beyotime Biotechnology and utilized to test the cytotoxicity of compounds by MTT assays as previous study. The anti-inflammatory effect of the compounds was detected by the influence on the increase in the level of nitric oxide caused by lipopolysaccharide (LPS) based on the classic Griess method. RAW 264.7 cells (Shanghai Institutes for Biological Science) were seeded in 96-well plates and incubated for 24 h. Then, cells were treated with compounds 29, 29a, 31, and 31a (0-80 μM) for 30 min, followed by co-treatment with LPS ([…]) for another 24 h. The Nitric Oxide assay kit with Griess reagents (Beyotime, Lot: S0021, Shanghai, China) was used to examine cellular supernatant nitrite accumulation, which represents cellular NO levels. The OD value of 540 nm absorbance was detected with a microplate reader. Their authentication in the laboratory was performed regularly based on morphology and gene/protein expression. The tested micro-organisms including Gram-negative bacteria E. coli ATCC 35218 and Pseudomonas aeruginosa ATCC 27853, and Gram-positive bacteria Staphylococcus aureus ATCC 29213 and B. subtilis ATCC 6633, and fungi Candida albicans, Rhizoctonia solani and Aspergillus fumigatus were treated with different concentrations of compounds (1 μM, 10 μM, 100 μM) using Bauer-Kirby disk diffusion method to evaluate the antimicrobial activities.

[3] = system: human breast adenocarcinoma cells MDA-MB-231; experiment: cells; format: cell-based; conditions: 24 h
From the text: as §1

[4] = system: human hepatoma cell HepG-2; experiment: cells; format: cell-based; conditions: 24 h
From the text: as §1

[5] = system: human lung epithelial normal cell 2B; experiment: cells; format: cell-based; conditions: 24 h
From the text: as §1

human cells Kasumi = experiment: MTT cytotoxicity assay, Kasumi; format: cell-based; conditions: 24 h
From the text: as §1

[6] = system: human acute lymphoblastic leukemia cells K562; experiment: cells; format: cell-based; conditions: 24 h
From the text: as §1

[7] = system: human breast adenocarcinoma cells MCF7; experiment: cells; format: cell-based; conditions: 24 h
From the text: as §1

[8] = system: human colon cancer cell HCT-116; experiment: cells; format: cell-based; conditions: 24 h
From the text: as §1

[9] = system: human gastric cancer cell SGC-7901; experiment: cells; format: cell-based; conditions: 24 h
From the text: as §1

tumor lines = experiment: MTT cytotoxicity assay, statements on the whole panel; format: cell-based, human; conditions: MTT assay, panel of tumor cell lines
From the text: as §1

SMILES: NC(=O)CC[C@H](N)C(=O)O [L-Gln]
- relative activity of A1 domain for the activation of amino acids, Average [1]: 42.7539%
- selectivity of A1 domain for amino acids in words [1]: broad selectivity

SMILES: CSCC[C@H](N)C(=O)O [L-Met]
- relative activity of A1 domain for the activation of amino acids, Average [1]: 100%

- IC50 [3]: > 20 µM
- IC50 [4]: > 20 µM
SMILES: CCCCCCCCCC(=O)N[C@H](CCSC)C(=O)N[C@H](CC(N)=O)C(=O)N1CCC[C@H]1C(=O)N[C@H](C(=O)N[C@H](Cc1ccccc1)C(=O)N1CCC[C@H]1C(=O)N[C@@H](Cc1c[nH]c2ccccc12)C(=O)N[C@@H](C(=O)N[C@@H](C)C(=O)N[C@H](C)C(=O)N[C@@H](CO)C(=O)N[C@@H](C)C(=O)NCCCCN)C(C)C)C(C)C [Compound 6, Glidonin F] (Decanoyl-[dM][dN]PV[dF]PW[dV]A[dA]SA-{NH(CH2)4NH2})
- IC50 [2]: > 20 µM
- IC50 [5]: > 20 µM

SMILES: CC(C)[C@H](N)C(=O)O [L-Val]
- relative activity of A1 domain for the activation of amino acids, Average [1]: 4.884%
- selectivity of A1 domain for amino acids in words [1]: weaker selectivity

SMILES: N[C@@H](Cc1c[nH]cn1)C(=O)O [L-His]
- relative activity of A1 domain for the activation of amino acids, Average [1]: 1.516%

SMILES: NC(=O)C[C@H](N)C(=O)O [L-Asn]
- relative activity of A1 domain for the activation of amino acids, Average [1]: 8.604%

- IC50 [6]: > 20 µM
- IC50 [7]: > 20 µM
- IC50 [3]: 4.26 µM
- IC50 [8]: > 20 µM
- IC50 [9]: > 20 µM
- IC50 [4]: > 20 µM
SMILES: CCCCCCCCCCCC(=O)N[C@H](CC(C)C)C(=O)N[C@H](CC(N)=O)C(=O)N1CCC[C@H]1C(=O)N[C@H](C(=O)N[C@H](Cc1ccccc1)C(=O)N1CCC[C@H]1C(=O)N[C@@H](Cc1c[nH]c2ccccc12)C(=O)N[C@@H](C(=O)N[C@@H](C)C(=O)N[C@H](C)C(=O)N[C@@H](CO)C(=O)N[C@@H](C)C(=O)NCCCCN)C(C)C)C(C)C [Compound 9, Glidonin I] (Lauroyl-[dL][dN]PV[dF]PW[dV]A[dA]SA-{NH(CH2)4NH2})
- IC50 (human cells Kasumi): 9.65 ± 0.4 µM
- IC50 [2]: 3.26 µM
- IC50 [5]: 10.4 ± 0.54 µM
- cytotoxic / antitumor activity in words (tumor lines): broad-spectrum cytotoxicity

SMILES: N[C@@H](CCC(=O)O)C(=O)O [L-Glu]
- relative activity of A1 domain for the activation of amino acids, Average [1]: 43.4238%
- selectivity of A1 domain for amino acids in words [1]: broad selectivity

SMILES: NCC(=O)O [Gly]
- relative activity of A1 domain for the activation of amino acids, Average [1]: 3.896%

SMILES: CC(C)C[C@H](N)C(=O)O [L-Leu]
- relative activity of A1 domain for the activation of amino acids, Average [1]: 48.0078%

SMILES: N[C@@H](CO)C(=O)O [L-Ser]
- relative activity of A1 domain for the activation of amino acids, Average [1]: 10.8427%

- IC50 [6]: > 20 µM
- IC50 [7]: > 20 µM
- IC50 [3]: > 20 µM
- IC50 [8]: > 20 µM
- IC50 [9]: > 20 µM
- IC50 [4]: > 20 µM
SMILES: CSCC[C@@H](NC=O)C(=O)N[C@H](CC(N)=O)C(=O)N1CCC[C@H]1C(=O)N[C@H](C(=O)N[C@H](Cc1ccccc1)C(=O)N1CCC[C@H]1C(=O)N[C@@H](Cc1c[nH]c2ccccc12)C(=O)N[C@@H](C(=O)N[C@@H](C)C(=O)N[C@H](C)C(=O)N[C@@H](CO)C(=O)N[C@@H](C)C(=O)NCCCCN)C(C)C)C(C)C [Compound 4, Glidonin D] (For-[dM][dN]PV[dF]PW[dV]A[dA]SA-{NH(CH2)4NH2})
- IC50 (human cells Kasumi): > 20 µM
- IC50 [2]: > 20 µM
- IC50 [5]: > 20 µM
